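The compound was tested at five concentrations on cells cultured in 96-well plates, with a 48-hour exposure period. GI50: concentration for 50% inhibition of growth.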 Active and inactive are the calls of the source. Rule as the data show it: active = GI50 up to about 1.1 µM and inactive = higher.
What was measured:
Test in all cases: inhibition of tumour cell growth, NCI panel, 48 h
NCI-H23 = tested on: NCI-H23
SF-268 = tested on: SF-268
COLO 205 = tested on: COLO 205
Hs-578T = tested on: Hs-578T
OVCAR-5 = tested on: OVCAR-5
Malme-3M = tested on: Malme-3M
HT-29 = tested on: HT-29
UO-31 = tested on: UO-31
HL-60 = tested on: HL-60
CCRF-CEM = tested on: CCRF-CEM
U-251 = tested on: U-251
HCT-116 = tested on: HCT-116
M14 = tested on: M14
IGROV-1 = tested on: IGROV-1
HOP-92 = tested on: HOP-92
SNB-19 = tested on: SNB-19
CAKI-1 = tested on: CAKI-1

Row | SMILES | GI50 (NCI-H23) | GI50 (SF-268) | GI50 (COLO 205) | GI50 (Hs-578T) | GI50 (OVCAR-5) | GI50 (Malme-3M) | GI50 (HT-29) | GI50 (UO-31) | GI50 (HL-60) | GI50 (CCRF-CEM) | GI50 (U-251) | GI50 (HCT-116) | GI50 (M14) | GI50 (IGROV-1) | GI50 (HOP-92) | GI50 (SNB-19) | GI50 (CAKI-1)
1 | CN(C)c1ccc(C(c2ccc(N(C)C)cc2)c2ccc([N+](=O)[O-])cc2)cc1 | > 100 µM (inactive) | > 100 µM (inactive) | > 100 µM (inactive) | > 100 µM (inactive) | > 100 µM (inactive) | > 100 µM (inactive) | > 100 µM (inactive) | > 100 µM (inactive) | 23.9 µM (inactive) | > 100 µM (inactive) | > 100 µM (inactive) | > 100 µM (inactive) | > 100 µM (inactive) | > 100 µM (inactive) | > 100 µM (inactive) | > 100 µM (inactive) | > 100 µM (inactive)
2 | CCSc1cc2c(cc1O)CC[C@@H]1[C@@H]2CC[C@]2(C)[C@@H](O)CC[C@@H]12 | 18.8 µM (inactive) | 29 µM (inactive) | 18.3 µM (inactive) | 5.33 µM (inactive) | 23 µM (inactive) | 11.2 µM (inactive) | 10.8 µM (inactive) | 15.4 µM (inactive) | 4.54 µM (inactive) | 10.1 µM (inactive) | 12.6 µM (inactive) | 8.57 µM (inactive) | – | 11.7 µM (inactive) | 8.77 µM (inactive) | 12.1 µM (inactive) | 12.6 µM (inactive)
3 | CN1C/C(=C\c2ccc(Cl)cc2)C(=O)/C(=C/c2ccc(Cl)cc2)C1 | 2.44 µM (inactive) | 1.63 µM (inactive) | 0.979 µM (active) | 2.65 µM (inactive) | 3.34 µM (inactive) | 14.3 µM (inactive) | 0.294 µM (active) | 1.77 µM (inactive) | 0.676 µM (active) | 0.323 µM (active) | 0.454 µM (active) | 0.208 µM (active) | 1.73 µM (inactive) | 1.4 µM (inactive) | > 26.9 µM (inactive) | 1.25 µM (inactive) | 1.3 µM (inactive)
4 | C/C=C/COc1cc(NC(=S)OC(C)C)ccc1Cl.C/C=C\COc1cc(NC(=S)OC(C)C)ccc1Cl | 16.9 µM (inactive) | 17.7 µM (inactive) | 17.6 µM (inactive) | 17.7 µM (inactive) | 19 µM (inactive) | 15 µM (inactive) | 15.3 µM (inactive) | 12 µM (inactive) | 19.3 µM (inactive) | 25.3 µM (inactive) | 16.9 µM (inactive) | 17.4 µM (inactive) | 24.2 µM (inactive) | 19.6 µM (inactive) | 11.8 µM (inactive) | 20.7 µM (inactive) | 4.06 µM (inactive)
5 | COC(=O)[C@]1(C)CCCC2(C)C3=C(CCC21)CC1(CC3)SCCS1 (some centres not stated) | > 10 µM (inactive) | > 10 µM (inactive) | > 10 µM (inactive) | > 10 µM (inactive) | – | > 10 µM (inactive) | > 10 µM (inactive) | – | > 10 µM (inactive) | > 10 µM (inactive) | > 10 µM (inactive) | > 10 µM (inactive) | > 10 µM (inactive) | > 10 µM (inactive) | > 10 µM (inactive) | > 10 µM (inactive) | > 10 µM (inactive)
6 | NC(=O)c1ccc(NS(=O)(=O)c2ccc(N)cc2)nc1 | > 100 µM (inactive) | > 100 µM (inactive) | > 100 µM (inactive) | > 100 µM (inactive) | > 100 µM (inactive) | > 100 µM (inactive) | > 100 µM (inactive) | > 100 µM (inactive) | > 100 µM (inactive) | > 100 µM (inactive) | > 100 µM (inactive) | > 100 µM (inactive) | > 100 µM (inactive) | > 100 µM (inactive) | > 100 µM (inactive) | > 100 µM (inactive) | > 100 µM (inactive)
7 | CCOP(=O)(CCCC(O)CNc1cc(Cl)nc(N)n1)OCC (configuration not stated) | > 100 µM (inactive) | > 100 µM (inactive) | > 100 µM (inactive) | > 100 µM (inactive) | > 100 µM (inactive) | > 100 µM (inactive) | > 100 µM (inactive) | > 100 µM (inactive) | > 100 µM (inactive) | > 100 µM (inactive) | > 100 µM (inactive) | > 100 µM (inactive) | – | > 100 µM (inactive) | > 100 µM (inactive) | – | > 100 µM (inactive)
8 | OCC(O)C(O)C(O)C(O)c1nc2cc(Cl)ccc2[nH]1 (configuration not stated) | > 100 µM (inactive) | > 100 µM (inactive) | > 100 µM (inactive) | > 100 µM (inactive) | > 100 µM (inactive) | > 100 µM (inactive) | > 100 µM (inactive) | > 100 µM (inactive) | 2.14 µM (inactive) | > 100 µM (inactive) | > 100 µM (inactive) | > 100 µM (inactive) | > 100 µM (inactive) | > 100 µM (inactive) | > 100 µM (inactive) | > 100 µM (inactive) | > 100 µM (inactive)
9 | CC(=O)Nc1ccc(/C=C2/NC(=S)N(/C=C3\C(=O)Oc4ccccc4C3=O)C2=O)cc1 | 67.3 µM (inactive) | 29.4 µM (inactive) | 61.8 µM (inactive) | 22.5 µM (inactive) | > 100 µM (inactive) | > 100 µM (inactive) | 44.9 µM (inactive) | 39.5 µM (inactive) | 40.5 µM (inactive) | 45.1 µM (inactive) | 46.3 µM (inactive) | 52.7 µM (inactive) | 58.3 µM (inactive) | 49 µM (inactive) | 63.2 µM (inactive) | > 100 µM (inactive) | 49.5 µM (inactive)
10 | O/N=C/C1c2ccccc2-c2ccccc21 | 17.9 µM (inactive) | 15.3 µM (inactive) | 16.6 µM (inactive) | 18.7 µM (inactive) | – | 15.2 µM (inactive) | 14.8 µM (inactive) | 15.1 µM (inactive) | 31.3 µM (inactive) | 19.5 µM (inactive) | 19.4 µM (inactive) | 16.3 µM (inactive) | 16.9 µM (inactive) | – | 12.8 µM (inactive) | 18.4 µM (inactive) | 14 µM (inactive)
11 | COc1cc2c(=O)cnoc2cc1O | > 100 µM (inactive) | > 100 µM (inactive) | > 100 µM (inactive) | > 100 µM (inactive) | > 100 µM (inactive) | > 100 µM (inactive) | > 100 µM (inactive) | > 100 µM (inactive) | > 100 µM (inactive) | > 100 µM (inactive) | > 100 µM (inactive) | – | > 100 µM (inactive) | > 100 µM (inactive) | > 100 µM (inactive) | > 100 µM (inactive) | > 100 µM (inactive)
12 | CC(=O)O[C@H]1C(=O)[C@@]2(C)[C@H]([C@H](OC(=O)c3ccccc3)[C@]3(O)C[C@H](OC(=O)[C@H](OC(=O)OCCC(O)CO)[C@@H](NC(=O)c4ccccc4)c4ccccc4)C(C)=C1C3(C)C)[C@]1(OC(C)=O)CO[C@@H]1C[C@@H]2O (some centres not stated) | < 0.01 µM (active) | < 0.0111 µM (active) | < 0.01 µM (active) | < 0.01 µM (active) | < 0.016 µM (active) | – | < 0.01 µM (active) | 0.989 µM (active) | < 0.01 µM (active) | < 0.01 µM (active) | < 0.01 µM (active) | < 0.01 µM (active) | < 0.01 µM (active) | < 0.01 µM (active) | 12.8 µM (inactive) | < 0.01 µM (active) | 0.631 µM (active)
13 | N#Cc1nc(C(=O)c2ccccc2)oc1N | – | > 100 µM (inactive) | – | 20.9 µM (inactive) | > 100 µM (inactive) | – | > 100 µM (inactive) | – | > 100 µM (inactive) | > 100 µM (inactive) | > 100 µM (inactive) | > 100 µM (inactive) | > 100 µM (inactive) | 64.9 µM (inactive) | > 100 µM (inactive) | > 100 µM (inactive) | > 100 µM (inactive)
14 | COc1cc(COC(=O)N2CC=CC2C(=O)O)c([N+](=O)[O-])cc1OC (configuration not stated) | > 100 µM (inactive) | > 100 µM (inactive) | > 100 µM (inactive) | > 100 µM (inactive) | > 100 µM (inactive) | > 100 µM (inactive) | > 100 µM (inactive) | > 100 µM (inactive) | > 100 µM (inactive) | > 100 µM (inactive) | > 100 µM (inactive) | > 100 µM (inactive) | > 100 µM (inactive) | > 100 µM (inactive) | > 100 µM (inactive) | > 100 µM (inactive) | –
15 | Cn1[nH]nn/c1=N\N=C\c1ccccc1 | > 10 µM (inactive) | > 10 µM (inactive) | > 10 µM (inactive) | > 10 µM (inactive) | > 10 µM (inactive) | – | > 10 µM (inactive) | > 10 µM (inactive) | > 10 µM (inactive) | > 10 µM (inactive) | > 10 µM (inactive) | > 10 µM (inactive) | > 10 µM (inactive) | > 10 µM (inactive) | > 10 µM (inactive) | > 10 µM (inactive) | > 10 µM (inactive)
16 | O=C(NCCCl)NCc1ccccc1 | > 100 µM (inactive) | > 100 µM (inactive) | > 100 µM (inactive) | > 100 µM (inactive) | > 100 µM (inactive) | > 100 µM (inactive) | > 100 µM (inactive) | > 100 µM (inactive) | > 100 µM (inactive) | > 100 µM (inactive) | > 100 µM (inactive) | > 100 µM (inactive) | – | > 100 µM (inactive) | > 100 µM (inactive) | > 100 µM (inactive) | > 100 µM (inactive)
17 | C#CC1=CC(=O)C(OC)=CC1=O | 20.9 µM (inactive) | 43.4 µM (inactive) | 27 µM (inactive) | 95.1 µM (inactive) | 33.5 µM (inactive) | 25.9 µM (inactive) | 23.3 µM (inactive) | 4.68 µM (inactive) | 2.44 µM (inactive) | 7.36 µM (inactive) | 31.9 µM (inactive) | 13.3 µM (inactive) | 16.5 µM (inactive) | – | 15.6 µM (inactive) | > 100 µM (inactive) | 18.6 µM (inactive)
